Results reported in a melting point compilation (Tetko et al.; mined from patent text by program, amines drawn as free bases though some values may be those of a salt).

First: CCOC(=O)Nc1cc(OCC)c(Br)cc1F
Second: CCOC(=O)C=Cc1cc(C=CC(=O)OCC)cc(CO)c1
The melting point of the first is higher: 92.5 to 95 °C for the first, 68 to 69.5 °C for the second.

First: Nc1ccc(C(=O)C(O)c2ccccc2)cc1 (stereo not drawn)
Second: O=C(Cc1ccccc1)NC(C(=O)O)C(c1ccccc1)c1ccccc1 (stereo not drawn)
The melting point of the first is higher: 199 to 203 °C for the first, 173 °C for the second.

Compared with `CC(C)(C)NCC(O)COc1ccccc1-c1ccc(=O)[nH]n1` (stereo not drawn), `CC(COc1ccccc1)NCC(O)COc1cccc(O)c1` (stereo not drawn) is lower in melting point: 162 to 164 °C for the first, 124 to 127 °C for the second.

`CCCCCCCCCCCCCCc1cc(C(=O)OCC)c[nH]1` and `CCCCCCCCOc1ccc(-c2ccc(C(C)OC(=O)CCCCC)cc2)cc1` (single isomer, unassigned; (-)) cannot be ordered by melting point: 59 to 62 °C for the first, 60.8 °C for the second.

First: COc1ccc(C2(C#N)CCC(=O)C(C(N)=O)C2)cc1OCC1CC1 (stereo not drawn)
Second: CCOC(=O)c1cn(C2CC2)c2nc(N3C[C@@H](CN)[C@@H](Cl)C3)c(F)cc2c1=O (relative stereo)
The melting point of the first is lower: 154 to 155 °C for the first, 163 to 167 °C for the second.

First: CCCCc1sc(C(=O)O)c2c1-c1c(cnn1C)CC2
Second: O=C1CCc2c(Cl)sc(-c3ccncc3)c21
The melting point of the first is higher: 286 to 287 °C for the first, 163 to 165 °C for the second.

First: CC(=O)Nc1cc(Cc2ccc3c(C(=O)Nc4ccc(CN5CCN(C)CC5)c(C(F)(F)F)c4)cccc3c2)ncn1
Second: COc1ccc2c(c1)CCN(CCc1ccc(NC(=O)c3cccc4c(=O)c5cccc(OC)c5[nH]c34)cc1)C2
The melting point of the first is lower: 202 to 204 °C for the first, 260 °C for the second.

First: Brc1ccc(-c2cc(-c3cccc(Br)c3)no2)cc1
Second: COC(=O)c1ccccc1-c1cc(-c2ccc(Cl)cc2)no1
The melting point of the first is higher: 169 °C for the first, 89.5 to 91 °C for the second.

First: CCOC(=N)C(O)c1sccc1C (stereo not drawn)
Second: CCO[C@@H](Cc1ccc(O)cc1)C(=O)O
The melting point of the first is lower: 73 to 76 °C for the first, 105 °C for the second.

First: O=C(NC(Cc1ccc(OCc2ccccc2)cc1)C(=O)O)c1cn2ccc(-c3ccc(Cl)cc3)cc2n1 (stereo not drawn)
Second: CC(=O)SCC(=Cc1ccc(-c2ccccc2)cc1)C(=O)NCCC(=O)OCc1ccccc1
The melting point of the first is higher: 248 to 249 °C for the first, 76 °C for the second.

First: CCOC(=O)c1cnc2nc(N3CCN(C)CC3)ncc2c1Cl
Second: COc1cc2ncnc(N3CCN(C(=O)NCc4cnc(C)cn4)CC3)c2cc1OC
The melting point of the first is lower: 173 to 175 °C for the first, 202 to 204 °C for the second.

First: CCCc1nc2c(N)nc3cc(OCc4ccc(C(C)(C)C)cc4)ccc3c2n1CC(C)C
Second: CCOCc1nc2c(N)nc3cc(-c4cccnc4)ccc3c2n1CC1CCN(C(=O)OC(C)(C)C)CC1
The melting point of the first is higher: 204 to 205 °C for the first, 197 to 198 °C for the second.

`CCC(C(=O)c1ccc(Cl)cc1)n1ncn(-c2ccc(N3CCN(C(C)=O)CC3)cc2)c1=O` (stereo not drawn) and `COc1ccc(N2CCN(c3c(C)c(C)c4c(c3C)C(O)(CCc3ccccc3)C(C)(C)O4)CC2)cc1` (stereo not drawn) cannot be ordered by melting point: 125 °C for the first, 124 to 126 °C for the second.

First: C/C=C/C(=O)Nc1ccc2ncnc(Nc3cccc(Br)c3)c2c1
Second: CCc1ccnc2cc(OC)c(OCc3ccccc3)cc12
The melting point of the first is higher: 153 to 160 °C for the first, 132 to 134 °C for the second.

First: N#Cc1ccc(OCCCOc2ccc(-c3cc4cc(C#N)ccc4o3)cc2)cc1
Second: c1ccc(-c2nc(COc3ccc(CCCCn4ccnc4)cc3)co2)cc1
The melting point of the first is higher: 188 to 189 °C for the first, 113 to 114 °C for the second.

First: CS(=O)(=O)c1ccc(-n2nc(C(F)(F)F)cc2-c2ccc(-c3cscn3)c(Cl)c2)cc1
Second: CS(=O)(=O)Nc1ccc(Sc2ccc([N+](=O)[O-])cc2)cc1Oc1ccc(F)cc1F
The melting point of the first is higher: 128 to 130 °C for the first, 124 to 127 °C for the second.

Compared with `O=C(Nc1ccccc1Cl)Oc1ccc2c(c1)N(Cc1ccccc1)CCC2`, `c1ccc(CCC2CCN(Cc3nc4ccccc4[nH]3)CC2)cc1` is higher in melting point: 145 °C for the first, 170 °C for the second.

Compared with `CCOC(=O)Cc1sc(Sc2nc(C)ccc2C(=O)OCC)nc1C`, `CCOC(=O)Cn1c(C(=O)OCC)cc(=O)c2cc(O)c(=O)ccc21` is higher in melting point: 95 to 97 °C for the first, 186 to 188 °C for the second.

First: COc1cc(C#N)cc(-c2ccc3c(c2)C(C)(C)OC(=S)N3)c1
Second: N#Cc1cccc(N2C(=O)CC(=O)Nc3c2ccc2ccccc32)c1
The melting point of the first is lower: 201 to 202 °C for the first, 220 to 222 °C for the second.

First: Cc1ccncc1-c1cc2ccncc2c(N)n1
Second: CC1CCn2c(nc(-c3ccncc3)cc2=O)N1 (stereo not drawn)
The melting point of the first is higher: 280 to 282 °C for the first, 245 to 247 °C for the second.

First: O=[N+]([O-])c1cc(I)cc(OCc2ccccc2)c1
Second: CCOC(=O)CC(NC(=O)c1cc(NC(=O)OC(C)(C)C)cc(OCc2ccccc2)c1)c1ccccc1 (racemic)
The melting point of the first is lower: 79 to 80 °C for the first, 115 °C for the second.

Compared with `CCOC(=O)c1c(C)nn(-c2ccccn2)c1C`, `Cc1csc(-c2ncccc2C(=O)c2ccccn2)c1` is higher in melting point: 49 to 50 °C for the first, 122 to 123 °C for the second.

First: CN(C(=O)OC(C)(C)C)c1ccc(C#CCCCO)cc1
Second: C=CCOC(=O)COc1ccc(CO)cc1
The melting point of the first is higher: 103 to 105 °C for the first, 33.5 to 34.5 °C for the second.

Compared with `Cc1sc(N2CCCCC2)nc1C=Cc1cn(-c2ccccc2)nc1O`, `O=C(Nc1nccs1)c1c(C(F)(F)F)nc(-c2ccccc2)c(-c2ccccc2)c1O` is higher in melting point: 224 to 226 °C for the first, 256 °C for the second.

Compared with `C=Cc1ccc(OS(C)(=O)=O)cc1`, `CCCCOc1ccc(C(=O)CCCCC(=O)O)cc1` is higher in melting point: 57 to 58 °C for the first, 95 °C for the second.

Compared with `CCC(O)CNC(=O)c1ccc(C(F)(F)F)c(N)c1` (stereo not drawn), `O=C(N=c1sc2cc(C(F)(F)F)ccc2n1CCO)C(F)(F)F` is higher in melting point: 132 to 134 °C for the first, 198 °C for the second.

First: O=C1CN(c2ccncc2)CCN1
Second: CC1=CC(c2cccc(Br)c2)C2=C(CCCC2=O)N1 (stereo not drawn)
The melting point of the first is higher: 268 to 270 °C for the first, 187 to 191 °C for the second.

First: CC(C)[C@H](NS(=O)(=O)c1ccc(-c2ccc(Br)cc2)cc1)C(=O)O
Second: COP(=O)(CN[C@@H](Cc1ccc(-c2ccccc2)cc1)C(=O)O)OC
The melting point of the first is higher: 192 to 193 °C for the first, 133 to 136 °C for the second.

Compared with `CC(C(=O)NCCN(C)C)c1cccc(C(=O)c2cc3ccsc3s2)c1` (stereo not drawn), `CC(C)c1cccc(C(C)C)c1NC(=O)NCC1(c2ccc(N(C)C)cc2)O[C@H](C)[C@@H](C)O1` is higher in melting point: 160 °C for the first, 165 to 167 °C for the second.

First: C=CCC(=O)NCCN1CCOc2ccc(OC)cc21
Second: O=C(CCl)N1CCC(Cc2ccc(Cl)cc2)CC1
The melting point of the first is higher: 80 to 81 °C for the first, 70 °C for the second.

Compared with `O=C(OCc1cncs1)Oc1ccc([N+](=O)[O-])cc1`, `CC1=CC(OC(=O)C=Cc2ccc(O)cc2)C(O)C(C)(C)CC1=O` (stereo not drawn) is higher in melting point: 62 to 64 °C for the first, 176 to 177 °C for the second.

First: Cc1cc2c(c(C(C)(C)C)c1)OC(=O)C2Cl (stereo not drawn)
Second: CS(=O)(=O)c1cc(C(=O)O)cc([N+](=O)[O-])c1Cl
The melting point of the first is lower: 81 to 86 °C for the first, 190 to 194 °C for the second.

First: Nc1nc(-c2ccc(Cl)cc2)c(CCO)c2ncnn12
Second: CCOC(=O)C1CCc2c(n(C(C)=O)c3ccc(Cl)cc23)C1 (stereo not drawn)
The melting point of the first is higher: 207 to 208 °C for the first, 95 to 96 °C for the second.

First: CC(=O)C(=[N+]=[N-])C(=O)CCCCCCCCCc1ccccc1
Second: Cc1cc(CCCCCOc2ccc(C3NCCS3)cc2)on1 (stereo not drawn)
The melting point of the first is lower: 29 to 31 °C for the first, 82 to 84 °C for the second.

First: N#CCCn1ncccc1=O
Second: CCCC1=C(C#N)C(c2cccc(C(F)(F)F)c2Cl)c2c[nH]nc2N1 (stereo not drawn)
The melting point of the first is lower: 75 to 76 °C for the first, over 250 °C for the second.

First: CCOC(=O)c1c(C(F)(F)F)nc(C(F)F)c(C(=O)OC)c1C1CO1 (stereo not drawn)
Second: NCc1cn(CCC(=O)O)c(=S)n1[C@H]1CCc2c(F)cc(F)cc2C1
The melting point of the first is lower: 57.5 to 59 °C for the first, 191 °C for the second.

With `COc1ccccc1-c1c(=O)[nH]c2cc(Cl)c(Cl)cc2[n+]1[O-]` the melting point was 239 to 241 °C.
